The numbers were not newly measured in patent publication US20190046468A1 (SUN PHARMACEUTICAL INDUSTRIES LIMITED, priority 2017, published 2019), which cites them from elsewhere.

Molecules are shown by their SMILES.

The conditions of series [1]: in vivo.
For series [2] the following is noted: aqueous media and many other solvents including acetone.

As for `COc1ccccc1OCC(O)CO` (centres unmarked) [Guaifenesin], the plasma half-life entry in series [1] was “about 1 hour”. In addition, in series [2], the solubility entry was “freely soluble”.
